# Reference: the supplement of paper PMC10307832
# What was measured:
# Assay in all cases: relative viability (nuclei count vs DMSO), 5 days (fraction); higher = more cells survive
# TGX 221 + AZD7762 = compound: CC1=CN2C(=O)C=C(N=C2C(=C1)C(C)NC3=CC=CC=C3)N4CCOCC4 [TGX 221] + NC(=O)Nc1cc(-c2cccc(F)c2)sc1C(=O)N[C@H]1CCCNC1 [AZD7762] (partner 0.2 µM)
# In short: (§1)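 The day after seeding in 1536-well plates, lung cancer cell lines were treated by pin tool with a single drug, or with a fixed anchor-drug dose together with five library-drug doses (not always all listed) in √10 steps. After 5 days, a combined fix-and-stain solution (final 0.05% Triton X-100, 1% formaldehyde, 1 ug/ml Hoechst) was added. Nuclei counted on 4× images gave relative viability as treated counts over vehicle counts, reported as the median of duplicate plates.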
# TGX 221 + Pemetrexed = compound: CC1=CN2C(=O)C=C(N=C2C(=C1)C(C)NC3=CC=CC=C3)N4CCOCC4 [TGX 221] + Nc1nc2[nH]cc(CCc3ccc(C(=O)N[C@@H](CCC(=O)O)C(=O)O)cc3)c2c(=O)[nH]1 [Pemetrexed] (partner 0.2 µM)
# In short: as §1
# TGX 221 + Lapatinib = compound: CC1=CN2C(=O)C=C(N=C2C(=C1)C(C)NC3=CC=CC=C3)N4CCOCC4 [TGX 221] + CS(=O)(=O)CCNCc1ccc(-c2ccc3ncnc(Nc4ccc(OCc5cccc(F)c5)c(Cl)c4)c3c2)o1 [Lapatinib] (partner 2 µM)
# In short: as §1
# [1] = compound: C1=CC=C(C(=C1)C2=CC=C(C=C2)C3=CSC4=C3C(=C(C(=O)N4)C#N)O)O + C[C@@H](Oc1cc(-c2cnn(C3CCNCC3)c2)cnc1N)c1c(Cl)ccc(F)c1Cl [Crizotinib] (partner 1 µM)
# In short: as §1
cell line,measurement,setting,value
NCI-H1792,relative viability,TGX 221 + AZD7762; first compound 0.08 µM,0.625
same,relative viability,TGX 221 + AZD7762; first compound 0.253 µM,0.625
same,relative viability,TGX 221 + AZD7762; first compound 0.8 µM,0.602
same,relative viability,TGX 221 + AZD7762; first compound 2.53 µM,0.556
same,relative viability,TGX 221 + AZD7762; first compound 8 µM,0.418
same,relative viability,TGX 221 + Pemetrexed; first compound 0.08 µM,0.795
same,relative viability,TGX 221 + Pemetrexed; first compound 0.253 µM,0.695
same,relative viability,TGX 221 + Pemetrexed; first compound 0.8 µM,0.557
same,relative viability,TGX 221 + Pemetrexed; first compound 2.53 µM,0.549
same,relative viability,TGX 221 + Pemetrexed; first compound 8 µM,0.802
same,relative viability,TGX 221 + Lapatinib; first compound 0.08 µM,0.782
same,relative viability,TGX 221 + Lapatinib; first compound 0.253 µM,0.983
same,relative viability,TGX 221 + Lapatinib; first compound 0.8 µM,0.814
same,relative viability,TGX 221 + Lapatinib; first compound 2.53 µM,0.846
same,relative viability,TGX 221 + Lapatinib; first compound 8 µM,0.887
same,relative viability,[1]; first compound 0.253 µM,0.915
same,relative viability,[1]; first compound 0.8 µM,1.15
same,relative viability,[1]; first compound 2.53 µM,1.13
same,relative viability,[1]; first compound 8 µM,0.43
